From patent US20090124599A1, “Fungicidal Mixtures” (Basf Aktiengesellschaft, priority 2004, published 2009) come the findings set out here.

Molecules are shown by their SMILES.

For assay [1], the system named is Botrytis cinerea. Briefly: Activity against the gray mold pathogen Botrytis cinerea in the microtiter test. The format is cell-based. The settings on record: single active, day 7 after inoculation, absorption 405 nm.
For assay [2], the system named is Phytophthora infestans. It counts as in vivo, Phytophthora infestans on tomato plants. The settings on record: 16 ppm; single active; sprayed 5 days before infection, assessed after 6 days; control 90% infection.

Take `CO/C=C(/C(=O)OC)c1ccccc1CO/N=C(C)/C=C/c1ccc(Cl)cc1` [enestroburin (I), methyl 2-{2-[3-(4-chlorophenyl)-1-methylallylideneaminooxymethyl]phenyl}-3-methoxyacrylate]: the “Observed efficacy (%)” value in assay [1] (0.063 ppm), in assay [1] (0.125 ppm) and in assay [1] (0.25 ppm) was 0% in each case.

As to `O=[N+]([O-])c1cc(C(F)(F)F)c(Cl)c([N+](=O)[O-])c1Nc1ncc(C(F)(F)F)cc1Cl` [fluazinam (II-1), 3-chloro-N-[3-chloro-2,6-dinitro-4-(trifluoromethyl)phenyl]-5-(trifluoromethyl)-2-pyridineamine], the “Observed efficacy (%)” value in assay [2] is reported as 22%; in assay [1] (0.063 ppm) it was 35%.

As to `Cc1cc(C)nc(Nc2ccccc2)n1` [pyrimethanil (II-9)], the “Observed efficacy (%)” value in assay [1] (0.125 ppm) is 70%.
